Patent US11092596B2, “Material and method to screen proteasome stimulators” (Purdue Research Foundation, priority 2017, dated 2021)
“Also recorded” adds a separate entry of the source.

Tests used:
[1] = biological target: chymotrypsin-like activity of the immunoproteasome core particle (iCP) (Homo sapiens, UniProt P28062); assay: Kinetic assay, CT-L FRET reporter with immunoproteasome; format: biochemical; conditions: 25 μM compound
Procedure: Compounds 1, 2, and 3 were screened with the immunoproteasome in triplicate using the CT-L FRET reporter.
To each well was added 40 μL 20 μM CT-L FRET reporter (in Tris-HCl, 50 mM, pH 7.7). To the reporter background wells was added 5 μL Tris-HCl and 5 μL 1:1 Tris-HCl:DMSO. Similarly, to the control wells was added 5 μL 1:1 Tris-HCl:DMSO. To the test wells was added 2.5 μL Tris-HCl and 2.5 μL of a 500 μM solution of the compound of interest in DMSO. […] Immediately prior to running the assay on the Synergy 4 Plate Reader, 5 μL purified 26S proteasome (62.5 μg/mL in Tris-HCl) was added to the control and test wells.
The assay was performed using the Synergy 4 plate reader as described for the general screening kinetic assay procedure.

[2] = biological target: T1, chymotrypsin-like activity of the 20S CP (Homo sapiens, UniProt P28074); assay: Kinetic assay, CT-L FRET reporter hydrolysis by purified 20S CP; format: biochemical; conditions: CT-L FRET reporter; for EC50: dose response 0.78125-400 μM, triplicate, read-out: EC50 (concentration of half of the maximum stimulation) for 20S CP stimulation
T1 construct: 5 μL purified 20S proteasome (90 nM in Tris-HCl) was added to the control and test wells
Procedure: Plate preparation for the kinetic assay was performed similarly for all assays. All 96-well plates contained the following in triplicate: reporter background, containing reporter only, and control wells, containing reporter and purified 20S CP. It was determined that each well will contain a total volume of 50 μL. To each well was added 40 μL of the coumarin or FRET reporters (in Tris-HCl, 50 mM, pH 7.7). To the reporter background wells was added 7.5 μL Tris-HCl and 2.5 μL of the solvent in which the compound of interest was dissolved or diluted. Similarly, to the control wells was added 2.5 μL Tris-HCl and 2.5 μL of the solvent in which the compound of interest was dissolved or diluted. To the test wells was added 2.5 μL Tris-HCl and 2.5 μL of the compound of interest at a predetermined concentration. Immediately prior to running the assay on the Synergy 4 Plate Reader, 5 μL purified 20S proteasome (90 nM in Tris-HCl) was added to the control and test wells.
The Synergy 4 Plate Reader was set to heat the plate at 37° C. and read fluorescence every 2 min over a 40 min period. The excitation and emission wavelengths were set according to the reporter. For the FRET reporter, the excitation and emission wavelengths were set to 335 nm and 493 nm, respectively, corresponding to the excitation and emission wavelengths of the Edans fluorophore. For the coumarin reporter, the excitation and emission wavelengths were set to 380 nm and 460 nm, respectively.
(§1) AM-404 was used as a positive control compound to test the dose-response screening capabilities of the CT-L FRET reporter. The following concentrations of AM-404 were tested in triplicate: 50, 25, and 12.5 μM. To each well was added 40 μL 20 μM CT-L FRET (in Tris-HCl, 50 mM, pH 7.7). To the reporter background wells was added 5 μL Tris-HCl and 5 μL 1:1 Tris-HCl:DMSO. Similarly, to the control wells was added 5 μL 1:1 Tris-HCl:DMSO. To the 50 μM AM-404 test wells was added 2.5 μL Tris-HCl and 2.5 μL 1000 μM AM-404 in DMSO. To the 25 μM AM-404 test wells was added 2.5 μL Tris-HCl and 2.5 μL 500 μM AM-404 in DMSO. To the 12.5 μM AM-404 test wells was added 2.5 μL Tris-HCl and 2.5 μL 250 μM AM-404 in DMSO. Immediately prior to running the assay on the Synergy 4 Plate Reader, 5 μL purified 20S proteasome (90 nM in Tris-HCl) was added to the control and test wells. The assay was performed using the Synergy 4 plate reader as described for the general screening kinetic assay procedure.
as §1, with “Fenofibrate was” for “AM-404 was”, “a negative” for “a positive”, “of fenofibrate” for “of AM-404”, “μM fenofibrate” for “μM AM-404”, “procedure. […]” for “procedure.”

20S CP stimulation over basal level (dose response curve) ([2]; maximum of dose response curve) [%] | SMILES | ability to stimulate the chymotrypsin-like activity of the iCP [1] | EC50 [2] [µM]
– | Cc1c(C)c2c(c(C)c1OC(=O)CCC(=O)O)CC[C@@](C)(CCC[C@H](C)CCC[C@H](C)CCCC(C)C)O2 [Compound 3, vitamin E succinate] | showed an effect; also recorded: stimulate the chymotrypsin-like activity of the iCP significantly | 7
100 | C[C@H]1[C@H](C)CC[C@]2(C(=O)O)CC[C@]3(C)C(=CC[C@@H]4[C@@]5(C)CC[C@H](O)C(C)(C)[C@@H]5CC[C@]43C)[C@H]12 [Compound 2, ursolic acid] | showed an effect; also recorded: stimulate the chymotrypsin-like activity of the iCP significantly | 14
